Measured values as given in the supplement of paper PMC10627819.

How the values were obtained:
S. aureus DSM 20231 = assay: Bliss interaction score (quartile over a dose matrix) (fitness difference); higher = more antagonism (negative = synergy)
In short: (§1)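 The Bliss score takes observed fitness and subtracts the expected fitness, calculated as a product of single-drug fitness values. Those single-drug values were inferred from the combination data. Fitness is OD595 at entry into stationary phase divided by the plate's robust no-drug mean, capped at 1, and the score is summarised by quartiles across technical, biological and donor/recipient replicates.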

S. aureus Newman [1] = assay: as above
In short: as §1

S. pneumoniae D39V = assay: as above
In short: as §1

B. subtilis 168 [2] = assay: as above
In short: as §1

S. aureus Newman [3] = assay: fitness (endpoint OD595 vs no drug) (fraction); higher = more growth; details: one replicate
In short: (§2)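 Fitness was defined as the optical density at the transition into stationary phase relative to the robust mean of no-drug control wells. Values were capped at 1. Cultures were started at OD595 0.01 in 384-well plates (30 µl, or 55 µl for S. pneumoniae) in TSB, LB Lennox or CY at 37 °C. OD595 was recorded every 30 min over 14 h, with the first reading subtracted as background.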

B. subtilis 168 [4] = assay: as above
In short: as §2
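For Bliss interaction score (quartile over a dose matrix) in this document: first quartile when negative (synergy) and third quartile when positive (antagonism).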

CO/N=C(\C(=O)N[C@@H]1C(=O)N2C(C(=O)O)=C(COC(N)=O)CS[C@H]12)c1ccco1 [Cefuroxime] + CN[C@@H]1[C@H](O)[C@H](NC)[C@H]2O[C@@]3(O)C(=O)C[C@@H](C)O[C@H]3O[C@@H]2[C@H]1O [Spectinomycin]
Details | Bliss interaction score
B. subtilis 168 [2] | -0.0976
S. aureus DSM 20231 | 0.116
S. aureus Newman [1] | 0.127
S. pneumoniae D39V | 0.0427

fitness
Details | first compound 0.04875 µg/mL | first compound 0.0975 µg/mL | first compound 0.195 µg/mL
B. subtilis 168 [4], partner 2 µg/mL | 0.717 | 0.667 | 0.55
B. subtilis 168 [4], partner 4 µg/mL | 0.799 | 0.645 | 0.569
S. aureus Newman [3], partner 4 µg/mL | 0.932 | 0.971 | 0.9
S. aureus Newman [3], partner 8 µg/mL | 0.943 | 0.96 | 0.877
S. aureus Newman [3], partner 16 µg/mL | 0.94 | 0.918 | 0.84

fitness, B. subtilis 168 [4], one replicate
Details | first compound 1.562 µg/mL | first compound 3.125 µg/mL | first compound 6.25 µg/mL
partner 2 µg/mL | 0.3 | 0.171 | 0.134
partner 4 µg/mL | 0.234 | 0.0263 | 0.0348
partner 8 µg/mL | 0.0211 | 0 | 0.0048

CO/N=C(\C(=O)N[C@@H]1C(=O)N2C(C(=O)O)=C(COC(N)=O)CS[C@H]12)c1ccco1 [Cefuroxime] + CN[C@@H]1[C@H](O[C@H]2[C@H](O[C@H]3[C@H](O)[C@@H](O)[C@H](N=C(N)N)[C@@H](O)[C@@H]3N=C(N)N)O[C@@H](C)[C@]2(O)C=O)O[C@@H](CO)[C@H](O)[C@H]1O [Streptomycin]
Details | Bliss interaction score
B. subtilis 168 [2] | -0.123
S. aureus DSM 20231 | -0.357
S. aureus Newman [1] | 0.335
S. pneumoniae D39V | 0.0384

fitness
Details | first compound 0.04875 µg/mL | first compound 0.0975 µg/mL | first compound 0.195 µg/mL | first compound 1.562 µg/mL | first compound 3.125 µg/mL | first compound 6.25 µg/mL
B. subtilis 168 [4], partner 2 µg/mL | 0.722 | 0.664 | 0.6 | 0.132 | 0.088 | 0.0549
B. subtilis 168 [4], partner 4 µg/mL | – | – | 0.164 | 0.0266 | 0.015 | 0.0149
B. subtilis 168 [4], partner 8 µg/mL | 0.0543 | 0.0254 | 0.0361 | 0.032 | 0.0257 | 0.0148
S. aureus Newman [3], partner 2 µg/mL | 0.826 | 0.746 | 0.814 | – | – | –
S. aureus Newman [3], partner 4 µg/mL | 0.944 | ≥ 1 | 0.781 | – | – | –
S. aureus Newman [3], partner 8 µg/mL | 0.994 | 0.963 | 0.81 | – | – | –

CO/N=C(\C(=O)N[C@@H]1C(=O)N2C(C(=O)O)=C(COC(N)=O)CS[C@H]12)c1ccco1 [Cefuroxime] + COc1c(N2C[C@@H]3CCCN[C@@H]3C2)c(F)cc2c(=O)c(C(=O)O)cn(C3CC3)c12 [Moxifloxacin]
Details | Bliss interaction score
B. subtilis 168 [2] | 0.0178
S. aureus DSM 20231 | -0.0502
S. aureus Newman [1] | -0.14
S. pneumoniae D39V | 0.0473

fitness
Details | first compound 0.04875 µg/mL | first compound 0.0975 µg/mL | first compound 0.195 µg/mL | first compound 0.39 µg/mL | first compound 0.78 µg/mL
B. subtilis 168 [4], partner 0.0312 µg/mL | – | – | 0.0354 | 0.0276 | 0.0247
B. subtilis 168 [4], partner 0.0625 µg/mL | – | – | 0.0331 | 0.0172 | 0.0291
B. subtilis 168 [4], partner 0.125 µg/mL | – | – | 0.0376 | 0.0259 | 0.0192
S. aureus Newman [3], partner 0.0075 µg/mL | 0.631 | 0.593 | 0.595 | – | –
S. aureus Newman [3], partner 0.015 µg/mL | 0.439 | 0.4 | 0.445 | – | –
S. aureus Newman [3], partner 0.03 µg/mL | 0.034 | 0.0177 | 0.0236 | – | –

fitness, B. subtilis 168 [4], one replicate
Details | first compound 0.04875 µg/mL | first compound 0.0975 µg/mL | first compound 0.195 µg/mL | first compound 1.562 µg/mL | first compound 3.125 µg/mL | first compound 6.25 µg/mL
partner 0.0312 µg/mL | 0.0482 | 0.0451 | – | – | – | –
partner 0.0625 µg/mL | 0.0309 | 0.0348 | – | – | – | –
partner 0.125 µg/mL | 0.0185 | 0.0123 | – | – | – | –
partner 2 µg/mL | 0.0399 | 0.0244 | 0.0298 | 0.0359 | 0.0258 | 0.0141
partner 4 µg/mL | 0.0357 | 0.0206 | 0.0189 | 0.0269 | 0.0126 | 0.0118
partner 8 µg/mL | 0.0177 | 0.0063 | 0.0088 | 0.02 | 0.0184 | 0.011

CO/N=C(\C(=O)N[C@@H]1C(=O)N2C(C(=O)O)=C(COC(N)=O)CS[C@H]12)c1ccco1 [Cefuroxime] + COc1ccc(C[C@H](N)C(=O)N[C@H]2[C@@H](O)[C@H](n3cnc4c(N(C)C)ncnc43)O[C@@H]2CO)cc1 [Puromycin]
Details | Bliss interaction score
B. subtilis 168 [2] | 0.1
S. aureus DSM 20231 | 0.127
S. aureus Newman [1] | 0.0321
S. pneumoniae D39V | 0.0887

fitness
Details | first compound 0.04875 µg/mL | first compound 0.0975 µg/mL | first compound 0.195 µg/mL
B. subtilis 168 [4], partner 0.39 µg/mL | 0.758 | 0.65 | 0.551
B. subtilis 168 [4], partner 0.78 µg/mL | 0.787 | 0.705 | 0.539
B. subtilis 168 [4], partner 1.56 µg/mL | 0.772 | 0.678 | 0.586
S. aureus Newman [3], partner 0.39 µg/mL | 0.925 | 0.95 | 0.938
S. aureus Newman [3], partner 0.78 µg/mL | 0.969 | 0.945 | 0.956
S. aureus Newman [3], partner 1.56 µg/mL | 0.951 | 0.98 | 0.983

fitness, B. subtilis 168 [4], one replicate
Details | first compound 1.562 µg/mL | first compound 3.125 µg/mL | first compound 6.25 µg/mL
partner 0.39 µg/mL | 0.348 | 0.268 | 0.25
partner 0.78 µg/mL | 0.369 | 0.288 | 0.286
partner 1.56 µg/mL | 0.362 | 0.312 | 0.253
